Measured values reported in ChEMBL document CHEMBL5550121, “Expanding the ligand spaces for E3 ligases for the design of protein degraders” (Bioorg Med Chem, 2024).

Experiments:
Polycomb protein EED = Polycomb protein EED (Homo sapiens, UniProt O75530); experiment: Inhibition of EED (unknown origin) by ELISA based assay
[1] = Inhibition of p38 (unknown origin)

Chain of Polycomb protein EED (O75530 whole entry): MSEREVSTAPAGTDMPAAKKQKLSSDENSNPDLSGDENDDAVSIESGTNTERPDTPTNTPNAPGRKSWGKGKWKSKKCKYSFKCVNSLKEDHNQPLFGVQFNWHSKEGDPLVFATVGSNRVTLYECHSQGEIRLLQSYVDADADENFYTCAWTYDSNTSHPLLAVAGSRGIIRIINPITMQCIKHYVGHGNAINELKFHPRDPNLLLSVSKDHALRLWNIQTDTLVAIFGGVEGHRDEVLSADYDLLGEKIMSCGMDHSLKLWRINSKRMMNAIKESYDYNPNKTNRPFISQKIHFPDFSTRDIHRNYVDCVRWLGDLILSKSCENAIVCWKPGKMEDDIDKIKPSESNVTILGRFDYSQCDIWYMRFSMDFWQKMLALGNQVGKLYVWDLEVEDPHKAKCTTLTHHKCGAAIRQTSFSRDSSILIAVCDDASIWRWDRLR

| Structure (SMILES) | IC50 (Polycomb protein EED) [µM] | IC50 [1] [µM] |
| --- | --- | --- |
| Cc1ncccc1-c1cnc(NCc2c(F)ccc3c2CCO3)n2cnnc12 | 0.026 | – |
| COc1cc2c(Oc3ccc(NC(=O)C4(C(=O)Nc5ccc(F)cc5)CC4)cc3F)ccnc2cc1OCCCN1CCOCC1 [FORETINIB] | – | 11 |
